Assay [1] addresses T1, human serotonin transporter (Homo sapiens, UniProt P31645).
T1 construct: expressed in transfected cells; host or cells: HEK-293
The assay can be described thus: hSERT receptor binding ([125I]-RTI-55 radioligand). The note with it: membranes of HEK-293 cells transfected with human serotonin transporter cDNA; 50 pM [125I]-RTI-55; IC50 converted by Cheng-Prusoff; read-out: SERT Ki. A digest of the protocol: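 Ki values derive via Cheng-Prusoff from IC50s of displacement of 50 pM [125I]-RTI-55 binding to transfected HEK-293 membranes, 90 min at room temperature in pH 7.4 Krebs-HEPES buffer. Compounds spanned 10^−12 to 10^−5 M, in duplicate; nonspecific binding was set with 10 μM citalopram.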

Assay [2] deals with T2, human norepinephrine transporter (Homo sapiens, UniProt P23975).
T2 construct: expressed in transfected cells; host or cells: HEK-293
T2 sequence (P23975 whole entry): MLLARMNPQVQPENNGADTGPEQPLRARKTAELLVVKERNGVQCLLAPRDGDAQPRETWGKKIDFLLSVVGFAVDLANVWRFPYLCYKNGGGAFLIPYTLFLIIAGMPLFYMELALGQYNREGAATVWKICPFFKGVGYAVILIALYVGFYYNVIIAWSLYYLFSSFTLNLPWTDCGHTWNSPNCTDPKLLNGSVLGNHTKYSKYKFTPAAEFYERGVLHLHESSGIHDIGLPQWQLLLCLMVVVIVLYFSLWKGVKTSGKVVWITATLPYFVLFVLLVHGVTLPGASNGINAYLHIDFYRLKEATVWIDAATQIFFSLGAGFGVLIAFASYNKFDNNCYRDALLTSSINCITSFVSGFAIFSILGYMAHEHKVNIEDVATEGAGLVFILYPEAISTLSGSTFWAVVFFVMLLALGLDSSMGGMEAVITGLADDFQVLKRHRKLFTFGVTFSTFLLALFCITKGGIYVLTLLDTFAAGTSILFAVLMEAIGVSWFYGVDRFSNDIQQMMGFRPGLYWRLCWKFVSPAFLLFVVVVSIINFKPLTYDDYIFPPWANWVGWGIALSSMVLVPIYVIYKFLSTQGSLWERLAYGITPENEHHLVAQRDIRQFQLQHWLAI
The assay is described as follows: hNET receptor binding ([125I]-RTI-55 radioligand). The note with it: membranes of HEK-293 cells transfected with human norepinephrine transporter cDNA; 50 pM [125I]-RTI-55; IC50 converted by Cheng-Prusoff; read-out: NET Ki. A digest of the protocol:
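Membranes from HEK-293 cells expressing human NET were incubated 90 min at room temperature with 50 pM [125I]-RTI-55 and test compound (10^−5M to 10^−12M) in Krebs-HEPES, pH 7.4.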

Structures can show the parent of a compound that is named as a salt.

The Ki is a dissociation constant, usually derived from enzyme kinetics or from competition with a known ligand.

T1 sequence (P31645 whole entry): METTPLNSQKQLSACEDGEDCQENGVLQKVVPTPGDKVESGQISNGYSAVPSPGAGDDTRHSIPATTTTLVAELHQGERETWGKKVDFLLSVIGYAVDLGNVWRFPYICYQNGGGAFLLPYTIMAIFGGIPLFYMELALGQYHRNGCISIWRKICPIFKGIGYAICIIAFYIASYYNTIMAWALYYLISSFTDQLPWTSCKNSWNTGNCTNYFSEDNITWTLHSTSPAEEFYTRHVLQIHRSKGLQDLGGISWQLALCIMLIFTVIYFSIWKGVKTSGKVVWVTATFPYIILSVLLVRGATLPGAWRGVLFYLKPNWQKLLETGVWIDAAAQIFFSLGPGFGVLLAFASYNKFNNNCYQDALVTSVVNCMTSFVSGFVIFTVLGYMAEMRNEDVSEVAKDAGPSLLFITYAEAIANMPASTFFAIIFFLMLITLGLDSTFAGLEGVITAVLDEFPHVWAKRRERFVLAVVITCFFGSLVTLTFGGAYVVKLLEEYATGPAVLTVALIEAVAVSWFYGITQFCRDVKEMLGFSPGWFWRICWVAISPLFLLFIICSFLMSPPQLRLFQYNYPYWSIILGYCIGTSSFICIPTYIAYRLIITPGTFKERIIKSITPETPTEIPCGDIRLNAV

As for `OCc1cccc(-c2ccc(F)cc2CO[C@H]2CCNC2)c1` [Example D-87, (S)-[4′-Fluoro-2′-(pyrrolidin-3-yloxymethyl)-biphenyl-3-yl]-methanol], the Ki in assay [1] is 124 nM; in assay [2] it was 3080 nM.

As for `COc1ccccc1-c1ccccc1CO[C@H]1CCNC1` [Example D-31, (S)-3-(2′-Methoxy-biphenyl-2-ylmethoxy)-pyrrolidine], the Ki in assay [1] is 3100 nM; in assay [2] it was 464 nM.

`COc1ccc(-c2ccc(F)cc2CO[C@H]2CCNC2)cc1OC` [Example D-84, (S)-3-(4-Fluoro-3′,4′-dimethoxy-biphenyl-2-ylmethoxy)-pyrrolidine]: the Ki in assay [1] turned out to be 70.4 nM; in assay [2], 1920 nM.

As for `CC(=O)c1cccc(-c2ccc(F)cc2CO[C@H]2CCNC2)c1` [Example D-81, (S)-1-[4′-Fluoro-2′-(pyrrolidin-3-yloxymethyl)-biphenyl-3-yl]-ethanone], the Ki came out at 371 nM in assay [1] and 1970 nM in assay [2].

`Fc1cccc(-c2ncccc2CO[C@H]2CCNC2)c1F` [Example B-2, (S)-2-(2,3-Difluoro-phenyl)-3-(pyrrolidin-3-yloxymethyl)-pyridine fumarate]: the Ki was 3350 nM in assay [1] and 206 nM in assay [2].

With `COc1c(C)cc(-c2ccc(F)cc2CO[C@H]2CCNC2)cc1C` [Example D-92, (S)-3-(4-Fluoro-4′-methoxy-3′,5′-dimethyl-biphenyl-2-ylmethoxy)-pyrrolidine], the Ki in assay [1] was found to be 144 nM; in assay [2], 738 nM.

On to `Cc1cc(C)n(-c2cccc(-c3ccc(F)cc3CO[C@H]3CCNC3)c2)n1` [Example D-112, (S)-1-[4′-Fluoro-2′-(pyrrolidin-3-yloxymethyl)-biphenyl-3-yl]-3,5-dimethyl-1H-pyrazole], for which the Ki was 107 nM in assay [1] and 9630 nM in assay [2].

As to `c1ccc(-c2ccncc2)c(CO[C@H]2CCNC2)c1` [Example A-28, (S)-4-[2-(Pyrrolidin-3-yloxymethyl)-phenyl]-pyridine hydrochloride], the Ki in assay [1] came out at 1760 nM; in assay [2], 4860 nM.

Turning to `c1cc(-c2ccccc2CO[C@H]2CCNC2)cc(-n2cccn2)c1` [Example D-45, (S)-1-[2′-(Pyrroldin-3-yloxymethyl)-biphenyl-3-yl]-1H-pyrazole], the Ki in assay [1] worked out at 12.4 nM; in assay [2] it was 3340 nM.

Take `Fc1cccc(-c2ccccc2CO[C@H]2CCNC2)c1` [Example D-6, (S)-3-(3′-Fluoro-biphenyl-2-ylmethoxy)-pyrrolidine]: the Ki in assay [1] turned out to be 18.4 nM; in assay [2], 18.5 nM.

For `COc1cccc(-c2ccccc2CO[C@H]2CCNC2)c1C(=O)N(C(C)C)C(C)C` [Example D-60, (S)-3-Methoxy-2′-(pyrrolidin-3-yloxymethyl)-biphenyl-2-carboxylic acid diisopropylamide], the Ki was 882 nM in assay [1] and not below 10000 nM in assay [2].

In the case of `Oc1ccccc1-c1ccc(F)cc1CO[C@H]1CCNC1` [Example D-103, (S)-4′-Fluoro-2′-(pyrrolidin-3-yloxymethyl)-biphenyl-2-ol], the Ki came to 1090 nM in assay [1] and 650 nM in assay [2].

On to `Cc1cccc(-c2ccc(F)cc2CO[C@H]2CCNC2)c1` [Example D-69, (S)-3-(4-Fluoro-3′-methyl-biphenyl-2-ylmethoxy)-pyrrolidine], for which the Ki in assay [1] was found to be 85.8 nM; in assay [2] it was 90.4 nM.

`N#Cc1ccc(-c2ccccc2CO[C@H]2CCNC2)cc1` [Example D-51]: the Ki turned out to be 5460 nM in assay [1] and 5410 nM in assay [2].

For `Fc1cccc(-c2c(F)cccc2CO[C@H]2CCNC2)c1F` [Example A-26, (S)-3-(6,2′,3′-Trifluoro-biphenyl-2-ylmethoxy)-pyrrolidine hydrochloride], the Ki is 622 nM in assay [1] and 30.6 nM in assay [2].

For `c1ccc(-c2ccc3c(c2)CCO3)c(CO[C@H]2CCNC2)c1` [Example D-32, (S)-3-[2-(2,3-Dihydro-benzofuran-5-yl)-benzyloxy]-pyrrolidine], the Ki in assay [1] is 549 nM; in assay [2], 516 nM.

Consider “(S)-1-{3-[2-Pyrrolidin-3-yloxymethyl)-phenyl]-pyridin-2-yl}-piperazine [Example D-125]”, for which the Ki in assay [1] was 6930 nM; in assay [2] it was not below 10000 nM.

On to `Fc1ccc(-c2ccccc2CO[C@H]2CCNC2)cc1Cl` [Example A-11, (S)-3-(3′-Chloro-4′-fluoro-biphenyl-2-ylmethoxy)-pyrrolidine hydrochloride], for which the Ki in assay [1] amounted to 10.3 nM; in assay [2], 39.2 nM.

With `CC(C)Oc1ccc(-c2ccccc2CO[C@H]2CCNC2)cc1` [Example D-56, (S)-(4′-Isopropoxy-biphenyl-2-ylmethoxy)-pyrroldine], the Ki is 658 nM in assay [1] and not below 10000 nM in assay [2].

Turning to `Fc1cccc(-c2cccnc2CO[C@H]2CCNC2)c1F` [Example C-2, (S)-3-(2,3-Difluoro-phenyl)-2-(pyrrolidin-3-yloxymethyl)-pyridine fumarate], the figures for the Ki in assay [1] and in assay [2] were 74.6 nM and 845 nM, respectively.

Regarding `CCc1ccccc1-c1ccc(F)cc1CO[C@H]1CCNC1` [Example D-113, (S)-3-(2′-Ethyl-4-fluoro-biphenyl-2-ylmethoxy)-pyrrolidine], the Ki in assay [1] stood at 1470 nM; in assay [2], 1340 nM.

Regarding `CC(C)Oc1ccc(-c2ccc(F)cc2CO[C@H]2CCNC2)cc1` [Example D-107, (S)-3-(4-Fluoro-4′-isopropoxy-biphenyl-2-ylmethoxy)-pyrrolidine], the results for the Ki in assay [1] and in assay [2] were 386 nM and 3830 nM, respectively.

For `COc1ccc(-c2ccccc2CO[C@H]2CCNC2)cn1` [Example A-29, (S)-2-Methoxy-5-[2-(pyrrolidin-3-yloxymethyl)-phenyl]-pyridine fumarate], the values for the Ki in assay [1] and in assay [2] were 2470 nM and 2910 nM, respectively.

Turning to `Fc1ccc(-c2ccccc2-c2ccccc2)c(CO[C@H]2CCNC2)c1` [Example D-101, (S)-3-(4″-Fluoro-[1,1′,2′,1″]terphenyl-2″-ylmethoxy)-pyrrolidine], the Ki came to 3780 nM in assay [1] and 962 nM in assay [2].

As to `c1ccc(-c2cccc3ccccc23)c(CO[C@H]2CCNC2)c1` [Example D-15, (S)-3-(2-Naphthalen-1-yl-benzyloxy)-pyrrolidine], the Ki in assay [1] came out at 272 nM; in assay [2], 55.4 nM.

Take `COc1ccc(Cl)cc1-c1ccccc1CO[C@H]1CCNC1` [Example D-44, (S)-3-(5′-Chloro-2′-methoxy-biphenyl-2-ylmethoxy)-pyrrolidine]: the Ki in assay [1] stood at 12.4 nM; in assay [2], 3340 nM.

On to `CCOc1cccc(-c2ccc(F)cc2CO[C@H]2CCNC2)c1` [Example D-70, (S)-3-(3′-Ethoxy-4-fluoro-biphenyl-2-ylmethoxy)-pyrrolidine], for which the Ki came to 195 nM in assay [1] and 832 nM in assay [2].

Take `Cc1cc(F)ccc1-c1ccc(F)cc1CO[C@H]1CCNC1` [Example D-106, (S)-3-(4,4′-Difluoro-2′-methyl-biphenyl-2-ylmethoxy)-pyrrolidine]: the figures for the Ki in assay [1] and in assay [2] were 372 nM and 121 nM, respectively.

`CC(=O)c1ccccc1-c1ccccc1CO[C@H]1CCNC1` [Example D-42, (S)-1-[2′-(Pyrrolidin-3-yloxymethyl)-biphenyl-2-yl]-ethanone]: the inhibition constant (Ki) in assay [1] was not below 10000 nM; in assay [2], 2540 nM.

Take `COc1ccc(-c2ccc(F)cc2CO[C@H]2CCNC2)c(OC)c1` [Example D-77, (S)-3-(4-Fluoro-2′,4′-dimethoxy-biphenyl-2-ylmethoxy)-pyrrolidine]: the Ki worked out at 1400 nM in assay [1] and 1350 nM in assay [2].

Turning to `COc1ccccc1-c1ccc(F)cc1CO[C@H]1CCNC1` [Example D-72, (S)-3-(4-Fluoro-2′-methoxy-biphenyl-2-ylmethoxy)-pyrrolidine], the values for the Ki in assay [1] and in assay [2] were 356 nM and 205 nM, respectively.

Take `c1ccc(-c2cnc3[nH]ccc3c2)c(CO[C@H]2CCNC2)c1` [Example D-124, (S)-5-[2-(Pyrrolidin-3-yloxymethyl)-phenyl]-1H-pyrrolo[2,3-b]pyridine]: the Ki in assay [1] was found to be 2730 nM; in assay [2], 7400 nM.

Consider `FC(F)(F)Oc1ccc(-c2ccccc2CO[C@H]2CCNC2)cc1` [Example D-43, (S)-3-(4′-Trifluoromethoxy-biphenyl-2-ylmethoxy)-pyrrolidine], for which the Ki worked out at 16.9 nM in assay [1] and 2670 nM in assay [2].

Turning to `CCOc1ccc(-c2ccccc2CO[C@H]2CCNC2)cc1` [Example D-40, (S)-3-(4′-Ethoxy-biphenyl-2-ylmethoxy)-pyrrolidine], the Ki in assay [1] turned out to be 919 nM; in assay [2], 1260 nM.

With `Fc1ccc(-c2ccccc2F)c(CO[C@H]2CCNC2)c1` [Example A-9, (S)-3-(4,2′-Difluoro-biphenyl-2-ylmethoxy)-pyrrolidine fumarate], the values for the Ki in assay [1] and in assay [2] were 174 nM and 17.7 nM, respectively.

Consider `Fc1ccccc1-c1cccc(F)c1CO[C@H]1CCNC1` [Example A-30, (3S)-3-[(2′,3-difluorobiphenyl-2-yl)methoxy]pyrrolidine fumarate], for which the Ki in assay [1] came out at 247 nM; in assay [2], 80.1 nM.

Consider `Fc1ccc(-c2ccc(Cl)c(Cl)c2)c(CO[C@H]2CCNC2)c1` [Example D-83, (S)-3-(3′,4′-Dichloro-4-fluoro-biphenyl-2-ylmethoxy)-pyrrolidine], for which the figures for the Ki in assay [1] and in assay [2] were 71.6 nM and 109 nM, respectively.

Consider `Fc1ccc(-c2ccccc2)c(CO[C@H]2CCNC2)c1` [Example D-66, (S)-3-(4-Fluoro-biphenyl-2-ylmethoxy)-pyrrolidine], for which the Ki is 126 nM in assay [1] and 65.9 nM in assay [2].

Source of the values: patent US20090215857A1 (Pfizer Products Inc., priority 2005, published 2009).
